1 molecule from publication PMC3077571 (Nature structural & molecular biology, 2011) can be followed below.

The assay has as its target MBP W62F mutant (Escherichia coli, UniProt P0AEX9, S259C/W88F). It is filed as binding. The note with it: no sAB.

For the molecule `OC[C@H]1O[C@H](O[C@H]2[C@H](O)[C@@H](O)C(O)O[C@@H]2CO)[C@H](O)[C@@H](O)[C@@H]1O` (mixture of isomers) [maltose], the “decrease in maltose binding energy caused by W62F mutation” value is recorded as ~ 2 kcal/mol.
